Where a name gives a salt, the structure may show the parent alone. Read-outs that look alike come from different tables or passages of the source.
Assays:
Aerobacter aerogenes 3 = assay: MIC in vitro (Table VIII)
[1] = tested on: Pseudomonas aeruginosa Miller; assay: MIC in vitro (Table VIII); conditions: for MIC: pH 7.4, read-out: Minimum Inhibitory Concentration - MIC
Streptococcus pyogenes C [2] = assay: MIC in vitro (Table VIII); conditions: for MIC: pH 7.4, read-out: Minimum Inhibitory Concentration - MIC
Saccharomyces cerevisiae = assay: MIC in vitro (Table VIII); conditions: for MIC: Saccharomyces cerevisiae, pH 7.4, read-out: Minimum Inhibitory Concentration - MIC
Candida albicans 401 = assay: MIC in vitro (Table VIII); conditions: for MIC: pH 7.4, read-out: Minimum Inhibitory Concentration - MIC
Proteus mirabilis MeF = assay: MIC in vitro (Table VIII); conditions: for MIC: pH 7.4, read-out: Minimum Inhibitory Concentration - MIC
Streptococcus pyogenes 6 = assay: MIC in vitro (Table VIII); conditions: for MIC: pH 7.4, read-out: Minimum Inhibitory Concentration - MIC
Candida albicans 406 = assay: MIC in vitro (Table VIII); conditions: for MIC: pH 7.4, read-out: Minimum Inhibitory Concentration - MIC
[3] = tested on: Klebsiella pneumoniae 17 KR; assay: MIC in vitro (Table VIII); conditions: for MIC: pH 7.4, read-out: Minimum Inhibitory Concentration - MIC
[4] = tested on: Pseudomonas aeruginosa 8689; assay: MIC in vitro (Table VIII); conditions: for MIC: pH 7.4, read-out: Minimum Inhibitory Concentration - MIC
Escherichia coli 19 = assay: MIC in vitro (Table VIII); conditions: for MIC: pH 7.4, read-out: Minimum Inhibitory Concentration - MIC
[5] = tested on: Klebsiella pneumoniae Ad KR; assay: MIC in vitro (Table VIII); conditions: for MIC: pH 7.4, read-out: Minimum Inhibitory Concentration - MIC
Escherichia coli Sc = assay: MIC in vitro (Table VIII); conditions: for MIC: pH 7.4, read-out: Minimum Inhibitory Concentration - MIC
Proteus vulgaris 2 = assay: MIC in vitro (Table VIII); conditions: for MIC: pH 7.4, read-out: Minimum Inhibitory Concentration - MIC
Aerobacter aerogenes 4 = assay: MIC in vitro (Table VIII); conditions: for MIC: pH 7.4, read-out: Minimum Inhibitory Concentration - MIC
Salmonella paratyphi B2 = assay: MIC in vitro (Table VIII); conditions: for MIC: pH 7.4, read-out: Minimum Inhibitory Concentration - MIC
[6] = tested on: Staphylococcus aureus ATCC 6538P; assay: disc plate assay (microbiological assay); assay type: cell-based
Salmonella paratyphi B1 = assay: MIC in vitro (Table VIII); conditions: for MIC: pH 7.4, read-out: Minimum Inhibitory Concentration - MIC
Candida albicans 411 = assay: MIC in vitro (Table VIII); conditions: for MIC: pH 7.4, read-out: Minimum Inhibitory Concentration - MIC
Escherichia coli 5 = assay: MIC in vitro (Table VIII); conditions: for MIC: pH 7.4, read-out: Minimum Inhibitory Concentration - MIC
bacteria = assay type: cell-based
yeast = assay type: cell-based
[7] = tested on: kanamycin resistant bacteria; assay type: cell-based
[8] = tested on: gram-positive and gram-negative organisms; design: species or system mice; conditions: mouse
[9] = tested on: gram positive and gram-negative bacteria; assay type: cell-based
Streptococcus pyogenes C [10] = tested on: Streptococcus pyogenes C; design: species or system mice; conditions: mouse, in vivo, sc
[11] = tested on: Pseudomonas aeruginosa 8689; design: species or system mice; conditions: mouse, in vivo, sc
[12] = tested on: Staphylococcus aureus Gray; design: species or system mice; conditions: mouse, in vivo, sc
Escherichia coli 10536 = tested on: Escherichia coli 10536; design: species or system mice; conditions: mouse, in vivo, sc
[13] = tested on: Staphylococcus aureus 209P; assay: MIC in vitro (Table VIII); conditions: 24 hours; yeast beef broth (pH 7.4)
[14] = 24 hours, yeast beef broth (pH 7.4)
[15] = 24 hours, yeast beef broth (pH 7.4), kanamycin-resistant

Question: Which results are given for CN[C@@H]1[C@@H](O)[C@@H](O[C@@H]2[C@@H](O)[C@H](O[C@H]3OC(C(C)N)=CC[C@H]3N)[C@@H](N)C[C@H]2N)OC[C@]1(C)O (stereo partly shown) [Verdamicin I Sulfate]?
Answer: MIC (Aerobacter aerogenes 3; 24 h, pH 7.4, read-out: Minimum Inhibitory Concentration - MIC): 0.3 µg/mL; MIC ([1]; 24 h): 0.75 µg/mL; MIC ([1]; 48 h): 0.75 µg/mL; MIC (Streptococcus pyogenes C [2]; 24 h): 0.75 µg/mL; MIC (Streptococcus pyogenes C [2]; 48 h): 3 µg/mL; MIC (Saccharomyces cerevisiae; 24 h): > 10 µg/mL; MIC (Saccharomyces cerevisiae; 48 h): > 10 µg/mL; MIC (Candida albicans 401; 24 h): > 10 µg/mL; MIC (Candida albicans 401; 48 h): > 10 µg/mL; MIC (Proteus mirabilis MeF; 24 h): 0.3 µg/mL; MIC (Proteus mirabilis MeF; 48 h): 0.3 µg/mL; MIC (Streptococcus pyogenes 6; 24 h): 0.3 µg/mL; MIC (Streptococcus pyogenes 6; 48 h): 0.75 µg/mL; MIC (Candida albicans 406; 24 h): > 10 µg/mL; MIC (Candida albicans 406; 48 h): > 10 µg/mL; MIC ([3]; 24 h): 0.3 µg/mL; MIC ([3]; 48 h): 0.3 µg/mL; MIC ([4]; 24 h): 0.075 µg/mL; MIC ([4]; 48 h): 0.3 µg/mL; MIC (Escherichia coli 19; 24 h): 0.3 µg/mL; MIC (Escherichia coli 19; 48 h): 0.3 µg/mL; MIC ([5]; 24 h): 0.3 µg/mL; MIC ([5]; 48 h): 0.3 µg/mL; MIC (Escherichia coli Sc; 24 h): 0.3 µg/mL; MIC (Escherichia coli Sc; 48 h): 0.75 µg/mL; MIC (Proteus vulgaris 2; 24 h): 0.3 µg/mL; MIC (Proteus vulgaris 2; 48 h): 0.3 µg/mL; MIC (Aerobacter aerogenes 4; 24 h): 0.3 µg/mL; MIC (Aerobacter aerogenes 4; 48 h): 0.3 µg/mL; MIC (Salmonella paratyphi B2; 24 h): 0.3 µg/mL; MIC (Salmonella paratyphi B2; 48 h): 0.3 µg/mL; assay potency in the gentamicin assay ([6]; gentamicin assay): 674 µg/mg; MIC (Salmonella paratyphi B1; 24 h): 0.3 µg/mL; MIC (Salmonella paratyphi B1; 48 h): 0.75 µg/mL; MIC (Candida albicans 411; 24 h): > 10 µg/mL; MIC (Candida albicans 411; 48 h): > 10 µg/mL; MIC (Escherichia coli 5; 24 h): 0.3 µg/mL; MIC (Escherichia coli 5; 48 h): 0.75 µg/mL

Question: Which “cross resistance with gentamicin” value (bacteria) does the source give for CN[C@@H]1[C@@H](O)[C@@H](O[C@@H]2[C@@H](O)[C@H](O[C@H]3OC(C(C)N)=CC[C@H]3N)[C@@H](N)C[C@H]2N)OC[C@]1(C)O (stereo partly shown) [Verdamicin I] here?
Answer: appears to be cross resistant with gentamicin

Question: What about the “in vitro activity against yeast” value (yeast) of the same molecule?
Answer: does not exhibit any substantial in vitro activity against yeast

Question: What about the pKa (physchem) of the same molecule?
Answer: 8.1

Question: What about the “activity against kanamycin resistant bacteria” value [7] of the same molecule?
Answer: active against kanamycin resistant bacteria

Question: And the “assay potency in the gentamicin assay” value [6]?
Answer: 1000 µg/mg

Question: What about the dose response curve [6] of the same molecule?
Answer: parallel to that of gentamicin

Question: What about the “antibacterial activity in vivo” value [8] of the same molecule?
Answer: potent antibacterial agent

Question: What about the “antibacterial activity in vitro” value [9] of the same molecule?
Answer: broad spectrum of antibacterial activity

Question: What does the source list for Gentamicin?
Answer: PD50 (Streptococcus pyogenes C [10]): 5.0 mg/kg; PD50 [11]: 1.7 mg/kg; PD50 [12]: 2.4 mg/kg; PD50 (Escherichia coli 10536): 1.7 mg/kg

Question: For Gentamicin Sulfate [reference compound], which “Minimum Inhibitory Concentration - MIC” value (Aerobacter aerogenes 3; [14]) is on record?
Answer: 0.6 µg/mL

Question: And the “Minimum Inhibitory Concentration - MIC” value [1, 14]?
Answer: 0.5 µg/mL

Question: And the “Minimum Inhibitory Concentration - MIC” value (Streptococcus pyogenes C [2]; [14])?
Answer: 3.0 µg/mL

Question: What about the “Minimum Inhibitory Concentration - MIC” value (Saccharomyces cerevisiae; [14]) of the same molecule?
Answer: > 50 µg/mL

Question: What about the “Minimum Inhibitory Concentration - MIC” value (Candida albicans 401; [14]) of the same molecule?
Answer: > 50 µg/mL

Question: And the “Minimum Inhibitory Concentration - MIC” value [13]?
Answer: 0.1 µg/mL

Question: And the “Minimum Inhibitory Concentration - MIC” value (Proteus mirabilis MeF; [14])?
Answer: 0.3 µg/mL

Question: What about the “Minimum Inhibitory Concentration - MIC” value (Streptococcus pyogenes 6; [14]) of the same molecule?
Answer: 1.0 µg/mL

Question: And the “Minimum Inhibitory Concentration - MIC” value (Candida albicans 406; [14])?
Answer: > 50 µg/mL

Question: What about the “Minimum Inhibitory Concentration - MIC” value [3, 15] of the same molecule?
Answer: 0.3 µg/mL

Question: What about the “Minimum Inhibitory Concentration - MIC” value [4, 14] of the same molecule?
Answer: 0.3 µg/mL

Question: What about the “Minimum Inhibitory Concentration - MIC” value (Escherichia coli 19; [14]) of the same molecule?
Answer: 0.3 µg/mL

Question: What about the “Minimum Inhibitory Concentration - MIC” value [5, 15] of the same molecule?
Answer: 0.3 µg/mL

Question: What about the “Minimum Inhibitory Concentration - MIC” value (Escherichia coli Sc; [14]) of the same molecule?
Answer: 0.75 µg/mL

Question: And the “Minimum Inhibitory Concentration - MIC” value (Proteus vulgaris 2; [14])?
Answer: 0.3 µg/mL

Question: What about the “Minimum Inhibitory Concentration - MIC” value (Aerobacter aerogenes 4; [14]) of the same molecule?
Answer: 0.3 µg/mL

Question: And the “Minimum Inhibitory Concentration - MIC” value (Salmonella paratyphi B2; [14])?
Answer: 0.5 µg/mL

Question: What about the “Minimum Inhibitory Concentration - MIC” value (Salmonella paratyphi B1; [14]) of the same molecule?
Answer: 1.0 µg/mL

Question: What about the “Minimum Inhibitory Concentration - MIC” value (Candida albicans 411; [14]) of the same molecule?
Answer: > 50 µg/mL

Question: And the “Minimum Inhibitory Concentration - MIC” value (Escherichia coli 5; [14])?
Answer: 0.3 µg/mL

Source: patent publication US3951746A, “Antibiotics and process for their manufacture” (Schering Corporation, priority 1975, dated 1976)
